Patent US20230157996A1, “SMALL-MOLECULE INHIBITOR TARGETING EB VIRUS NUCLEAR ANTIGEN PROTEIN, PREPARATION METHOD AND USE THEREOF” (priority 2020, published 2023)

Each compound was assayed on C666-1 cells (assay: C666-1 cell viability single concentration (50 μM) inhibition rate (Resazurin)). Conditions: Homo sapiens, C6661, 72 h, 50 μM compound, 72 hours, C666-1 cells; read-out: C666-1 cell viability single concentration (50 μM) inhibition rate, Ratio* (Inh %).
Type: cell-based
Outline: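 Resazurin fluorescence (560/590 nm, 3 h development) gave the proliferation inhibition rate, normalised to DMSO-treated and cell-free blank wells. Compound was tested at a single 50 μmol/L final concentration on C666-1 cells for 72 h at 37° C, with duplicate wells, after 24 h seeding.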

Structure (SMILES)	inhibition at 50 µM [%]
COC(=O)c1cccc(N2CC(Oc3ccc(NC(=S)Nc4ccc(C(F)(F)F)cc4)cc3)C2)c1-n1cccc1 [Example 118, Methyl 2-(1H-pyrrol-1-yl)-3-(3-(4-(3-(4-(trifluoromethyl)phenyl)thioureido)phenoxy)azetidin-1-yl)benzoate]	> 50
COC(=O)c1cccc(N2CC(Oc3cc(F)c(Oc4ccccc4)c(F)c3)C2)c1-n1cccc1 [Example 204, Methyl 3-(3-(3,5-difluoro-4-phenoxyphenoxy)azetidin-1-yl)-2-(1H-pyrrol-1-yl)benzoate]	< 10
COC(=O)c1cccc(N2CC(Oc3ccc(C(=O)N4CCOCC4)cc3)C2)c1-n1cccc1 [Example 265, Methyl 3-(3-(4-(morpholinyl-4-carbonyl)phenoxy)azetidin-1-yl)-2-(1H-pyrrol-1-yl)benzoate]	10 to 30
COC(=O)c1cccc(N2CC3(CN(c4cccc([N+](=O)[O-])c4)C3)C2)c1[N+](=O)[O-] [Compound 25, Methyl 3-(6-(3-nitrophenyl)-2,6-diazaspiro[3.3]heptan-2-yl)-2-nitrobenzoate]	10 to 30
COc1cc(NC(=O)NC2CN(c3cccc(C(=O)O)c3-n3cccc3)C2)cc(OC)c1 [Example 171, 3-(3-(3-(3,5-dimethoxyphenyl)ureido)azetidin-1-yl)-2-(1H-pyrrol-1-yl)benzoic acid]	< 10
COC(=O)c1cccc(N2CC(Oc3ccc(Oc4ccc(S(C)(=O)=O)cc4)cc3)C2)c1-n1cccc1 [Example 212, Methyl 3-(3-(4-(4-(methylsulfonyl)phenoxy)phenoxy)azetidin-1-yl)-2-(1H-pyrrol-1-yl)benzoate]	10 to 30
COC(=O)c1cccc(N2CC(Oc3ccc(CO)cc3)C2)c1-c1ccc2ccoc2c1 [Example 277]	10 to 30
O=C(O)c1cccc(N2CC(Oc3ccc(CO)cc3)C2)c1-n1cccc1 [Compound 38, 3-(3-(4-(hydroxymethyl)phenoxy)azetidin-1-yl)-2-(1H-pyrrol-1-yl)benzoic acid]	< 10
O=C(NCc1ccco1)c1cccc(N2CC(Oc3ccc(CO)cc3)C2)c1-n1cccc1 [Example 388, N-(furan-2-yl-methyl)-3-(3-(4-(hydroxymethyl)phenoxy)azetidin 1-yl)-2-(1H-pyrrol-1-yl)benzamide]	< 10
COC(=O)c1cccc(N2CC(Oc3ccc(CO)cc3)C2)c1-c1ccc(-c2ccccc2)cc1 [Compound 63, Methyl 6-(3-(4-(hydroxymethyl)phenoxy)azetidin-1-yl)-[1,1′:4′,1″-terphenyl]-2-formate]	10 to 30
COC(=O)c1cccc(N2CC(Oc3ccc(NC(=O)Nc4cccc(Cl)c4)cc3)C2)c1-n1cccc1 [Example 133, Methyl 3-(3-(4-(3-(3-chlorophenyl)ureido)phenoxy)azetidin-1-yl)-2-(1H-pyrrol-1-yl)benzoate]	> 50
O=C(O)c1cccc(N2CC(Oc3ccc(COc4cncnc4)cc3)C2)c1-n1cccc1 [Example 361, 3-(3-(4-((pyrimidin-5-yl-oxy)methyl)phenoxy)azetidin-1-yl)-2-(1H-pyrrol-1-yl)benzoic acid]	< 10
COC(=O)c1cccc(N2CC(Oc3ccc(CO)cc3)C2)c1-n1cccc1 [Compound 37, Methyl 3-(3-(4-(hydroxymethyl)phenoxy)azetidin-1-yl)-2-(1H-pyrrol-1-yl)benzoate]	30 to 50
COCCOc1ccc(OC2CN(c3cccc(C(=O)OC)c3-n3cccc3)C2)cc1 [Example 224, Methyl 3-(3-(4-(2-methoxyethoxy)phenoxy)azetidin-1-yl)-2-(1H-pyrrol-1-yl)benzoate]	< 10
COc1ccc(C(OC(C)=O)C23CC(c4cccc(C(=O)O)c4)(C2)C3)cc1 (centres unmarked) [Compound 1, 3-(3-(acetoxyl(4-methoxyphenyl)methyl)bicyclo[1. 1.1]pentan-1-yl)benzoic acid]	< 10
CC(=O)c1cccc(Oc2ccc(OC3CN(c4cccc(C(=O)O)c4-n4cccc4)C3)cc2)c1 [Example 294, 3-(3-(4-(3-acetylphenoxy)phenoxy)azetidin-1-yl)-2-(1H-pyrrol-1-yl)benzoic acid]	< 10
O=C(O)c1cccc(C2CC2c2ccccc2)c1-n1cccc1 (centres unmarked) [Example 393, 3-(2-phenylcyclopropyl)-2-(1H-pyrrol-1-yl)benzoic acid]	< 10
COCCOc1ccc(OC2CN(c3cccc(C(=O)OC)c3-n3cccc3)C2)cc1OC [Example 218, Methyl 3-(3-(3-methoxy-4-(2-methoxyethoxy)phenoxy)azetidin-1-yl)-2-(1H-pyrrol-1-yl)benzoate]	10 to 30
COCCOc1ccc(OC2CN(c3cccc(C(=O)O)c3-n3cccc3)C2)cc1OCCOC [Example 307, 3-(3-(3,4-bis(2-methoxyethoxy)phenoxy)azetidin-1-yl)-2-(1H-pyrrol-1-yl)benzoic acid]	< 10
COC(=O)c1cccc(N2CC(Oc3ccc(CO)cc3)C2)c1-c1cccc(C(=O)O)c1 [Example 279]	10 to 30
COC(=O)c1cccc(N2CC(Oc3ccc(OCCNC(C)=O)cc3)C2)c1-n1cccc1 [Example 312, Methyl 3-(3-(4-(2-acetylaminoethoxy)phenoxy)azetidin-1-yl)-2-(1H-pyrrol-1-yl)benzoate]	30 to 50
COC(=O)c1cccc(N2CC(S(=O)(=O)c3ccc(CO)cc3)C2)c1-n1cccc1 [Example 357, Methyl 3-(3-((4-(hydroxymethyl)phenyl)sulfonyl)azetidin-1-yl)-2-(1H-pyrrol-1-yl)benzoate]	< 10
COC(=O)c1cccc(N2CC(Oc3ccc(COc4cccc(F)c4)cc3)C2)c1-n1cccc1 [Example 247, Methyl 3-(3-(4-((3-fluorophenoxy)methyl)phenoxy)azetidin-1-yl)-2-(1H-pyrrol-1-yl)benzoate]	10 to 30
COC(=O)c1cccc(N2CC(OCC(=O)Nc3ccccc3)C2)c1-n1cccc1 [Example 144, Methyl 3-(3-(2-oxo-2-(phenylamino)ethoxy)azetidin-1-yl)-2-(1H-pyrrol-1-yl)benzoate]	10 to 30
COC(=O)c1cccc(N2CC(Oc3ccc(COC4CCN(C(C)=O)CC4)cc3)C2)c1-n1cccc1 [Example 378]	< 10
O=C(O)c1cccc(N2CC(Oc3ccc(C(F)(F)F)cc3)C2)c1-n1cccc1 [Compound 82, 2-(1H-pyrrol-1-yl)-3-(3-(4-(trifluoromethyl)phenoxy)azetidin 1-yl)benzoic acid]	< 10
COC(=O)c1cccc(C23CC(c4ccc(OC)cc4)(C2)C3)c1-n1cccc1 [Compound 7, Methyl 3-(3-(4-methoxyphenyl)bicyclo[1.1.1]pentan-1-yl)-2-(1H-pyrrol-1-yl)benzoate]	< 10

Same assay, conditions: Homo sapiens, C6661, 72 h, read-out: C666-1 cell viability single concentration (50 μM) inhibition rate, Ratio* (Inh %)

Structure (SMILES)	inhibition at 50 µM [%]
O=C(O)c1cccc(C#CN(Cc2ccccc2F)S(=O)(=O)c2cccs2)c1-n1cccc1 [Example 325, Lithium 3-((N-(2-fluorobenzyl)thiophen-2-sulfonamido)ethynyl)-2-(1H-pyrrol-1-yl)benzoate]	30 to 50
O=C(O)c1cccc(C#CN(Cc2ccccc2)S(=O)(=O)c2csc3ccccc23)c1-n1cccc1 [Example 321, Lithium 3-((N-benzylbenzo[b]thiophen-3-sulfonamido)ethynyl)-2-(1H-pyrrol-1-yl)benzoate]	< 10
